Test results as given in patent publication US20260165321A1, “FUMIGANT COMPOSITION FOR PEST CONTROL” (priority 2020, published 2026).
Values after ≈ are worked out from the molar mass of the structure shown.

What was measured:
Assay type in all cases: in vivo
[1] = test system: diamondback moth (Plutella xylostella); test: Fumigant toxicity test (1), 2 h in 1-liter airtight container; conditions: fumigation 2 hours, ~24° C., 30 insects, doses 0-180 mg/dm^3
Text: (§1) The poisoning ability index used in the following examples is the internationally commonly used median lethal concentration (LC50), which refers to a dosage required to kill 50% of a group of tested insects. The main test method is to include a number of tested insect (adults or larvae) and the examined chemical at a wide range of dosage in a 1-liter airtight transparent containers for a period of time. Afterward, the airtight containers were opened for ventilation, and the dead insects in the containers were counted. The linear regression between the mortality, expressed as probability unit, and the log dosage was analyzed using the software Priprobit v1.63, from which the value of LC50 could be obtained.
(§2) Take several 1-liter airtight transparent containers marked with different doses of 2,5-dimethylfuran, then put 30 insects into each of the transparent containers and add 2,5-dimethylfuran with marked doses (0, 18, 45, 90, 180 mg/dm^3), respectively, into each of the transparent containers. Place the containers at room temperature (˜24° C.) for 2 hours, and then quantitate the dead insects in each of the transparent containers. Wherein, the insects used include German cockroach (Blattella germanica), green peach aphid (Myzus persicae), brown planthopper (Nilaparvata lugens), diamondback moth (Plutella xylostella), rice weevil (Sitophilus oryzae), lesser grain borer (Rhyzopertha dominica), and sweet potato weevil (Cylas formicarius).

[2] = test system: lesser grain borer (Rhyzopertha dominica); test: as above; conditions: fumigation 2 hours, ~24° C., 30 insects, doses 0-180 mg/dm^3
Text: as §1, §2

[3] = test system: green peach aphid (Myzus persicae); test: as above; conditions: fumigation 2 hours, ~24° C., 30 insects, doses 0-180 mg/dm^3
Text: as §1, §2

[4] = test system: German cockroach (Blattella germanica); test: as above; conditions: fumigation 2 hours, ~24° C., 30 insects, doses 0-180 mg/dm^3
Text: as §1, §2

[5] = test system: brown planthopper (Nilaparvata lugens); test: as above; conditions: fumigation 2 hours, ~24° C., 30 insects, doses 0-180 mg/dm^3
Text: as §1, §2

[6] = test system: rice weevil (Sitophilus oryzae); test: as above; conditions: fumigation 2 hours, ~24° C., 30 insects, doses 0-180 mg/dm^3
Text: as §1, §2

[7] = test system: rice weevil (Sitophilus oryzae); conditions: adult rice weevil, fumigation 2 hours, about 24° C., 1-liter container
Text: as §1
Put 30 adult insects of rice weevil (Sitophilus oryzae) into each of a group of 1-liter transparent containers, on which the name of tested chemical and the predetermined dosage are marked. Wherein, the chemicals to be tested include 2,5-dimethylfuran, 2,5-dimethylthiophene, 2-methylfuran, 2-methylthiophene, 2-ethylfuran and 2-ethylthiophene. The airtight containers, which contain the insect and chemical, are left at room temperature of about 24° C. for 2 hours. Afterward, the containers are opened for ventilation, and the dead rice weevils (Sitophilus oryzae) in each of the containers are counted. The linear regression between mortality and log dosage is analyzed using the software Priprobit v1.63, from which the lethal concentrations 50% (LC50) and 95% (LC95) are calculated.

Row | SMILES | LC95 [95% CI] [7] | also measured
1 | Cc1ccc(C)o1 [2,5-dimethylfuran] | 111.6 µg/mL (≈ 1160 µM) | administered dosage required to kill all the tested individuals [1]: 90 mg/L; administered dosage enough to kill all the tested individuals [2]: 18 mg/L; administered dosage enough to kill all the tested individuals [3]: 18 mg/L; administered dosage required to kill all the tested individuals [4]: 90 mg/L; administered dosage required to kill all the tested individuals [5]: 90 mg/L; administered dosage required to kill all the tested individuals [6]: 90 mg/L
2 | Cc1ccc(C)s1 [2,5-dimethylthiophene] | 135.3 µg/mL (≈ 1210 µM) | 
3 | CCc1ccco1 [2-ethylfuran] | 146.5 µg/mL (≈ 1520 µM) | 
4 | CCc1cccs1 [2-ethylthiophene] | 20.6 µg/mL (≈ 184 µM) | 
5 | Cc1ccco1 [2-methylfuran] | 329.7 µg/mL (≈ 4020 µM) | 
6 | Cc1cccs1 [2-methylthiophene] | 54.6 µg/mL (≈ 556 µM) | 
